This passage reports LC50 results from ChEMBL document CHEMBL1145707, “Methyl 4-hydroxy-3-(3'-methyl-2'-butenyl)benzoate, major insecticidal principle from Piper guanacastensis” (1997).

For this assay, the system named is Aedes atropalpus. The experiment in a line: Insecticidal activity against Aedes atropalpus second-instar larvae after 24 hrs. In kind it is functional.

Converted amounts (≈) assume the structure as drawn.

By LC50 is commonly meant the concentration that kills 50% of the test population. A lower LC50 goes with a more lethal substance.

The compound `COC(=O)c1ccc(O)c(CC=C(C)C)c1` had an LC50 of 20.5 µg/mL (≈ 93.1 µM).

`CCOC(=O)c1ccc(O)c(CC=C(C)C)c1`: the LC50 is 25.7 µg/mL (≈ 110 µM).
